The record followed here is ChEMBL document CHEMBL1201862, “PubChem BioAssay data set” (2004).

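Five concentrations, 48 hours, 96-well plates. GI50 marks 50% less growth.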 Active and inactive are the calls of the source. Rule as the data show it: active = GI50 up to about 1.1 µM and inactive = higher. Some results are limits rather than exact numbers.

Among the test systems are LOX IMVI; HCT-116; OVCAR-8; UACC-62; MOLT-4; SN12C; HCT-15; TK-10; KM12; UO-31; CAKI-1; SW-620; SF-539; SF-295; IGROV-1; SK-MEL-5; NCI-H23; ACHN; UACC-257.
Common to all, as to experiment: NCI-60 cell line screen, 48 h

Consider `CC(C)C/C(CC(=O)CCC(=O)Nc1ccccc1[N+](=O)[O-])=N\NC(=O)c1cc2ccccc2cc1O`, for which the GI50 was 27 µM (inactive) in the experiment on LOX IMVI; 49.1 µM (inactive) in the experiment on HCT-116; 23.1 µM (inactive) with OVCAR-8; 25.7 µM (inactive) with UACC-62; 20.2 µM (inactive) in the experiment with MOLT-4; 50.6 µM (inactive) with SN12C. In addition, the GI50 in the experiment on HCT-15 was 31.6 µM; in the experiment with TK-10, 51.2 µM (inactive); in the experiment with KM12, 67.6 µM (inactive); with UO-31, 37 µM (inactive); in the experiment with CAKI-1, 68.2 µM (inactive); with SW-620, 41.4 µM (inactive). In addition, the GI50 with SF-539 is 27.1 µM (inactive); in the experiment on SF-295 it was 43.5 µM (inactive); in the experiment on IGROV-1, 26 µM (inactive); with SK-MEL-5, 28.1 µM (inactive); in the experiment on NCI-H23 it was 50.7 µM (inactive); in the experiment with ACHN, 34.1 µM (inactive). The GI50 in the experiment with UACC-257 is 37 µM (inactive).

On to `S=c1cc(S)c2c(=S)sc3nc4ccccn4c(=S)c3c2s1`, for which the GI50 was 47.2 µM (inactive) with LOX IMVI; 25 µM (inactive) in the experiment on HCT-116; 33.3 µM (inactive) with OVCAR-8; 36.4 µM (inactive) in the experiment on UACC-62; 27.2 µM (inactive) in the experiment on MOLT-4; 48.8 µM (inactive) in the experiment on SN12C. In addition, the GI50 was 49.8 µM in the experiment with HCT-15; > 100 µM (inactive) with TK-10; > 100 µM (inactive) with KM12; 72.4 µM (inactive) in the experiment on UO-31; > 100 µM (inactive) with CAKI-1; > 100 µM (inactive) in the experiment on SW-620. Besides, the GI50 is 41 µM (inactive) in the experiment with SF-539; > 100 µM (inactive) with SF-295; 38.5 µM (inactive) with SK-MEL-5; > 100 µM (inactive) with NCI-H23; > 100 µM (inactive) in the experiment with ACHN.

For `O=c1c2ccccc2nc(-c2ccccc2)n1NC(=S)Nc1ccc(Cl)cc1`, the GI50 is > 100 µM (inactive) in the experiment on LOX IMVI; 55.1 µM (inactive) in the experiment with HCT-116; > 100 µM (inactive) with OVCAR-8; 55.2 µM (inactive) with UACC-62; 69 µM (inactive) in the experiment on MOLT-4; > 100 µM (inactive) in the experiment with SN12C. Also, the GI50 in the experiment on HCT-15 is greater than 100 µM; in the experiment on TK-10 it was > 100 µM (inactive); in the experiment with KM12, 85.9 µM (inactive); in the experiment with UO-31, 61.5 µM (inactive); in the experiment on CAKI-1, > 100 µM (inactive); in the experiment with SW-620 it was > 100 µM (inactive). In addition, the GI50 in the experiment with SF-539 was > 100 µM (inactive); with SF-295, > 100 µM (inactive); in the experiment on IGROV-1, > 100 µM (inactive); in the experiment on SK-MEL-5, 36.9 µM (inactive); in the experiment on NCI-H23, 53.6 µM (inactive); in the experiment on ACHN, 77.1 µM (inactive). Besides, the GI50 in the experiment on UACC-257 is 75.9 µM (inactive).

Regarding `COC(=O)c1ccc(-c2nc(C#N)c(N)o2)cc1`, the GI50 was > 100 µM (inactive) in the experiment on LOX IMVI; > 100 µM (inactive) in the experiment on HCT-116; 57.1 µM (inactive) in the experiment with OVCAR-8; > 100 µM (inactive) with MOLT-4; > 100 µM (inactive) in the experiment on SN12C; greater than 100 µM in the experiment on HCT-15. The GI50 with TK-10, in the experiment on KM12, in the experiment with UO-31, in the experiment on CAKI-1, in the experiment on SW-620 and in the experiment on SF-539 was > 100 µM (inactive) throughout. The GI50 with SF-295 was > 100 µM (inactive); with IGROV-1, 99.8 µM (inactive); in the experiment on SK-MEL-5 it was > 100 µM (inactive); with NCI-H23, 35.8 µM (inactive); in the experiment with ACHN it was > 100 µM (inactive); with UACC-257, > 100 µM (inactive).

For `O=c1[nH]c2ccc(C(F)(F)F)cc2nc1Cc1ccccc1`, the GI50 is 40 µM (inactive) with LOX IMVI; 37.2 µM (inactive) in the experiment on HCT-116; 39.5 µM (inactive) with OVCAR-8; 42.9 µM (inactive) with UACC-62; 16.2 µM (inactive) in the experiment with MOLT-4; 36.1 µM in the experiment with HCT-15. Also, the GI50 in the experiment on TK-10 is > 100 µM (inactive); in the experiment with KM12 it was 31.6 µM (inactive); with UO-31, 37.3 µM (inactive); in the experiment on CAKI-1, 49.2 µM (inactive); in the experiment with SW-620 it was 39.4 µM (inactive); in the experiment on SF-539, 31.3 µM (inactive). In addition, the GI50 is 33.5 µM (inactive) with SF-295; 23.4 µM (inactive) in the experiment with IGROV-1; 24.7 µM (inactive) in the experiment on SK-MEL-5; 19.6 µM (inactive) with NCI-H23; 29.1 µM (inactive) in the experiment with ACHN; 67.1 µM (inactive) with UACC-257.

Turning to `COc1ccc(C2CC(c3cc(C)ccc3O)=NC(N)=N2)cc1` (stereo not given), the GI50 with LOX IMVI, in the experiment on HCT-116, with OVCAR-8, in the experiment on UACC-62, with MOLT-4 and in the experiment on SN12C was > 100 µM (inactive) in each case. The GI50 with HCT-15 was greater than 100 µM; in the experiment with TK-10, > 100 µM (inactive); in the experiment on KM12, > 100 µM (inactive); in the experiment on UO-31 it was > 100 µM (inactive); with CAKI-1 it was > 100 µM (inactive); in the experiment with SW-620, > 100 µM (inactive). Moreover, the GI50 with SF-539, with SF-295, in the experiment with IGROV-1, in the experiment with NCI-H23, in the experiment on ACHN and in the experiment with UACC-257 was > 100 µM (inactive) throughout.

As to `N#C/C(=C/c1cccnc1)C(=O)c1ccccc1`, the GI50 with LOX IMVI, with HCT-116, in the experiment with OVCAR-8, in the experiment on UACC-62, with MOLT-4 and with SN12C was > 100 µM (inactive) throughout. Besides, the GI50 in the experiment with HCT-15 is greater than 100 µM; with TK-10, > 100 µM (inactive); in the experiment with KM12 it was > 100 µM (inactive); in the experiment on UO-31, > 100 µM (inactive); in the experiment on CAKI-1 it was > 100 µM (inactive); in the experiment with SW-620 it was > 100 µM (inactive). For the same molecule, the GI50 in the experiment with SF-539, in the experiment with SF-295, with SK-MEL-5, in the experiment on NCI-H23, in the experiment with ACHN and with UACC-257 was > 100 µM (inactive) each time.

Consider `Cc1cc2c([nH]c3ccccc32)c2c1OC(C)(C)C1C3CC(C)(C)Oc4c(C)cc5c6ccccc6n(c5c43)C21` (stereo not given), for which the GI50 in the experiment on LOX IMVI, in the experiment on HCT-116, in the experiment on OVCAR-8, in the experiment on UACC-62, in the experiment on MOLT-4 and in the experiment on SN12C was > 100 µM (inactive) throughout. The GI50 in the experiment on HCT-15 is greater than 100 µM; with TK-10 it was > 100 µM (inactive); in the experiment on KM12, > 100 µM (inactive); in the experiment with UO-31 it was > 100 µM (inactive); in the experiment on CAKI-1, > 100 µM (inactive); with SW-620, > 100 µM (inactive). Further, the GI50 in the experiment with SF-539, in the experiment on SF-295, in the experiment with IGROV-1, in the experiment on SK-MEL-5, in the experiment on NCI-H23 and in the experiment with ACHN was > 100 µM (inactive) in each case. The GI50 with UACC-257 is > 100 µM (inactive).

As to `Cc1ccc([S+]([O-])C(C)C(Cl)c2ccccc2)cc1` (stereo not given), the GI50 with LOX IMVI was > 100 µM (inactive); in the experiment with HCT-116, > 100 µM (inactive); in the experiment with OVCAR-8, 78 µM (inactive); in the experiment with UACC-62, 80 µM (inactive); in the experiment with MOLT-4, 55.7 µM (inactive); in the experiment with SN12C it was > 100 µM (inactive). For the same molecule, the GI50 is greater than 100 µM with HCT-15; > 100 µM (inactive) with TK-10; > 100 µM (inactive) in the experiment on UO-31; > 100 µM (inactive) in the experiment with CAKI-1; > 100 µM (inactive) in the experiment on SW-620; > 100 µM (inactive) with SF-539. Moreover, the GI50 with SF-295 was 86.7 µM (inactive); with IGROV-1, 60.4 µM (inactive); with SK-MEL-5 it was 43.6 µM (inactive); with NCI-H23, 72.3 µM (inactive); with ACHN, > 100 µM (inactive); in the experiment with UACC-257, 34.7 µM (inactive).

For `CSc1nc(SC)c2c(C(N)=S)n[nH]c2n1`, the GI50 is 24.1 µM (inactive) with LOX IMVI; 28.8 µM (inactive) in the experiment on OVCAR-8; 21.8 µM (inactive) in the experiment with UACC-62; 27 µM (inactive) in the experiment with MOLT-4; 36.3 µM (inactive) in the experiment on SN12C; 36.2 µM in the experiment with HCT-15. Also, the GI50 in the experiment with TK-10 is 23.3 µM (inactive); in the experiment on KM12 it was 37.4 µM (inactive); in the experiment with UO-31, 19 µM (inactive); in the experiment with CAKI-1 it was 21.1 µM (inactive); with SW-620, 37 µM (inactive); in the experiment on SF-539 it was 23.1 µM (inactive). Besides, the GI50 with SF-295 is 6 µM (inactive); with IGROV-1, 30.4 µM (inactive); with SK-MEL-5, 17.9 µM (inactive); in the experiment with NCI-H23 it was 23.8 µM (inactive); with ACHN, 24 µM (inactive); with UACC-257, 21.8 µM (inactive).

With `Cc1cc2c(c3nocc13)C(=O)c1ccccc1C2=O`, the GI50 was > 100 µM (inactive) in the experiment on LOX IMVI; > 100 µM (inactive) in the experiment on OVCAR-8; > 100 µM (inactive) in the experiment on UACC-62; > 100 µM (inactive) with MOLT-4; > 100 µM (inactive) in the experiment on SN12C; greater than 100 µM in the experiment with HCT-15. Further, the GI50 with TK-10, in the experiment on KM12, in the experiment with UO-31, with CAKI-1, with SW-620 and in the experiment on SF-539 was > 100 µM (inactive) throughout. Besides, the GI50 with SF-295, with IGROV-1, with SK-MEL-5, with NCI-H23, in the experiment on ACHN and in the experiment with UACC-257 was > 100 µM (inactive) throughout.
